≈ marks a conversion by molar mass, not a printed value.
Tests used:
Kuramochi = assay: cells; type: cell-based; details: Homo sapiens, 72 h, read-out: Cytotoxicity LC50 Kuramochi
Procedure: (§1) Following their identification, compounds 1–5 were assessed for cytotoxicity in two high-grade ovarian cancer cell lines, OVCAR4 and Kuramochi. Potential for selective cytotoxicity was evaluated using two non-cancerous mouse cell lines representing the putative progenitor cells of ovarian cancer, murine ovarian surface epithelial (MOSE) and murine oviductal epithelial (MOE). […] Generally speaking, this para-quinone scaffold is not an attractive lead, as higher toxicity in non-tumorigenic cell lines confers serious overall toxicity.
(§2) Human ovarian OVCAR4 and Kuramochi cancer cells were maintained in RPMI 1640 (11875-093, Life-technologies; Carlsbad, CA, USA) supplemented with 10% FBS (16000-044, Life-technologies; Carlsbad, CA, USA) and 1% penicillin/streptomycin. Non-cancerous murine ovarian surface epithelium (MOSE) and murine oviductal epithelium (MOE) cells were maintained as previously reported. Concentration-response experiments were performed as previously described for 72 h.

OVCAR4 = assay: cells; type: cell-based; details: Homo sapiens, OVCAR-4, 72 h, read-out: Cytotoxicity LC50 OVCAR4
Procedure: as §1, §2

[1] = system: M. tuberculosis H37Rv ATCC 27294; assay: Microplate alamar blue assay (MABA), replicating M. tuberculosis; type: cell-based; details: for MIC: Mycobacterium tuberculosis, MIC = lowest concentration giving ≥90% growth inhibition, averaged from triplicates
[2] = system: M. tuberculosis H37Rv ATCC 27294; assay: Low oxygen recovery assay (LORA), non-replicating M. tuberculosis; type: cell-based; details: Mycobacterium tuberculosis
[3] = system: OVCAR4, Kuramochi, MOSE and MOE cell lines; assay: Cytotoxicity panel of cancerous and non-cancerous cell lines (overall statements, selectivity); type: cell-based; details: for Cytotoxicity in the cell line panel (in words): OVCAR4, Kuramochi, MOSE, MOE
Procedure: as §1, §2

[4] = system: panel of Gram-negative and Gram-positive bacteria; parameters: method as in PMID 2925509; details: cited from earlier work
[5] = system: wide range of cancer cell lines; details: previous reports; cited from earlier work
[6] = system: L1210 lymphocytic leukemia cells; parameters: method as in PMID 11395569; details: L1210 lymphocytic leukemia cells in vitro; read-out: IC50 range, inhibition of tumor cell proliferation and viability; cited from earlier work
Eimeria tenella = system: Eimeria tenella; parameters: method as in PMID 7451359, PMID 7451360; details: apicomplexan poultry parasite Eimeria tenella; cited from earlier work
[7] = system: two fungal species, a human parasite, and several Gram-negative and Gram-positive bacteria; parameters: method as in PMID 7451359, PMID 7451360; details: cited from earlier work

SMILES	CC50 (Kuramochi)	CC50 (OVCAR4)	MIC [1]	MIC [2]	Cytotoxicity in the cell line panel (in words) [3]	Antibacterial activity (in words) [4]	Inhibition of cancer cell lines (in words) [5]	Activity in MABA (in words) [1]	Greater activity toward Kuramochi ovarian cancer cells ([3]; Kuramochi versus the other cell lines of the panel)	IC50 [6]	Anticoccidial activity (in words) (Eimeria tenella)	Biological activity against antimicrobial panel (in words) [7]
Cc1cc(O)c2c3c(c(O)cc2c1)C(=O)c1c(O)cccc1C3=O [Compound 3, dehydrorabelomycin]	6.72 µM	11 µM	1.01 µg/mL (≈ 3.15 µM)	19.6 µg/mL (≈ 61.2 µM)	non-specifically cytotoxic	no detectable activity	inhibited a wide range of cancer cell lines at micromolar potency					
C=C[C@@]1(C)CCC2=C(CC[C@H]3C(C)(C)[C@@H](O)C(=O)C[C@]23C)C1 [Compound 1, isopimara-2-one-3-ol-8,15-diene]	> 33.1 µM	> 33.1 µM	19.4 µg/mL (≈ 64.1 µM)	> 50 µg/mL	not significantly active			lacked significant activity				
COc1cccc2c1C(=O)c1c(O)c3c(c(O)c1C2=O)C[C@@](O)(C(=O)CO)C[C@@H]3O[C@H]1C[C@H](N)[C@H](O)[C@H](C)O1 [Doxorubicin, reference compound]	< 0.078 µM	< 0.078 µM										
Cc1cc(O)c2c(c1)COC1=C2C(=O)c2cccc(O)c2C1=O [Compound 2, lagumycin B]	> 32.5 µM	> 32.5 µM	2.01 µg/mL (≈ 6.52 µM)	25.7 µg/mL (≈ 83.4 µM)								
COc1cc(C)cc2c(=O)oc3c(c12)C(=O)c1cccc(O)c1C3=O [Compound 5, WS-5995 A]	18.6 µM	127 µM	22.7 µg/mL (≈ 67.5 µM)	> 50 µg/mL	enhanced cytotoxicity against the Kuramochi cell line when compared to non-tumorigenic cell lines			lacked significant activity	approximately seven-fold	0.24 to 0.65 µM	anticoccidial activity	no significant biological activity
Cc1cc(O)c2c3c(ncc2c1)C(=O)c1c(O)cccc1C3=O [Compound 4, phenanthroviridone]	1.11 µM	4.82 µM	0.72 µg/mL (≈ 2.36 µM)	17.8 µg/mL (≈ 58.3 µM)	non-specifically cytotoxic							

Reference: paper PMC4584356, “A Pimarane Diterpene and Cytotoxic Angucyclines from a Marine-Derived Micromonospora sp. in Vietnam’s East Sea” (Marine Drugs, 2015)
